# Results as given in patent US20130295145A1, “TOPICAL PHARMACEUTICAL COMPOSITIONS COMPRISING ETODOLAC” (CADILA HEALTHCARE LIMITED, priority 2010, published 2013).
# Assay: Stability study on nanogel composition of Example 1 (storage at 40° C. and 75% relative humidity)
# Assay type: physicochemical
# Conditions: for % Drug in the formulation, 1 Month / % Drug in the formulation, 2 Month / % Drug in the formulation, 3 Month: 40° C. and 75% relative humidity; for % Drug in the formulation, 2 Month: 2 months; for % Drug in the formulation, 3 Month: 3 months
# Source text: Stability Study on Nanogel Composition of Example 1
# [1] = nanogel Formulation 1 of Example 1
# [2] = nanogel Formulation 2 of Example 1
Structure (SMILES),"% Drug in the formulation, 1 Month [1]","% Drug in the formulation, 2 Month [1]","% Drug in the formulation, 3 Month [1]","% Drug in the formulation, Initial [1]","% Drug in the formulation, 1 Month [2]","% Drug in the formulation, 2 Month [2]","% Drug in the formulation, 3 Month [2]","% Drug in the formulation, Initial [2]"
"CCc1cccc2c3c([nH]c12)C(CC)(CC(=O)O)OCC3 (racemic) [Etodolac, (RS)-2-(1,8-Diethyl-4,9-dihydro-3H-pyrano[3,4-b]indol-1-yl)acetic acid]",99.5%,97.7%,95.9%,101.6%,97.6%,103.0%,102.3%,100.4%
COC(=O)c1ccccc1O [Methyl salicylate],100.9%,95.2%,93.2%,97.3%,101.2%,97.7%,97.2%,100.2%
